Data reported in publication PMC10620772, “Design, synthesis, and biological evaluation of new pyrimidine-5-carbonitrile derivatives as novel anti-cancer, dual EGFR^WT/COX-2 inhibitors with docking studies” (RSC Advances, 2023).

How the values were obtained:
Experiment in all cases: NCI60 antitumor screening
Format in all cases: cell-based, human
CCRF-CEM = system: CCRF-CEM
K-562 = system: K-562
MOLT-4 = system: MOLT-4
RPMI-8226 = system: RPMI-8226
A549/ATCC = system: A549/ATCC
EKVX = system: EKVX
HOP-62 = system: HOP-62
HOP-92 = system: HOP-92
NCI-H226 = system: NCI-H226
NCI-H23 = system: NCI-H23
NCI-H460 = system: NCI-H460
NCI-H522 = system: NCI-H522
HCC-2998 = system: HCC-2998
HCT-116 = system: HCT-116
HCT-15 = system: HCT-15
HT29 = system: HT29
KM12 = system: KM12
SW-620 = system: SW-620
SF-295 = details: Homo sapiens, SF-295; five-dose

## N#Cc1c(-c2ccc(F)cc2)nc(SCc2ccccc2)nc1N1CCNCC1 [4e, 2-(Benzylthio)-4-(4-fluorophenyl)-6-(piperazin-1-yl) pyrimidine-5-carbonitrile]
CCRF-CEM; Homo sapiens, CCRF-CEM, five-dose
  GI50: 13.9 µM
CCRF-CEM; Homo sapiens, CCRF-CEM, five-dose, read-out: LC50 (the source's name)
  CC50: 69 µM
CCRF-CEM; Homo sapiens, 10 μM single dose, CCRF-CEM (leukaemia), read-out: growth inhibition percent (GI%)
  inhibition at 10 µM: > 100%
CCRF-CEM; five-dose
  TGI: 31.00 µM
K-562; Homo sapiens, K562, five-dose
  GI50: 2.21 µM
K-562; Homo sapiens, K562, five-dose, read-out: LC50 (the source's name)
  CC50: 18.7 µM
K-562; Homo sapiens, 10 μM single dose, (leukaemia), read-out: growth inhibition percent (GI%)
  inhibition at 10 µM: > 100%
K-562; five-dose
  TGI: 5.42 µM
MOLT-4; Homo sapiens, MOLT-4, five-dose
  GI50: 7.07 µM
MOLT-4; Homo sapiens, MOLT-4, five-dose, read-out: LC50 (the source's name)
  CC50: 52.7 µM
MOLT-4; Homo sapiens, 10 μM single dose, MOLT-4 (leukaemia), read-out: growth inhibition percent (GI%)
  inhibition at 10 µM: > 100%
MOLT-4; five-dose
  TGI: 21.20 µM
RPMI-8226; Homo sapiens, RPMI-8226, five-dose
  GI50: 3.99 µM
RPMI-8226; Homo sapiens, RPMI-8226, five-dose, read-out: LC50 (the source's name)
  CC50: 65.4 µM
RPMI-8226; Homo sapiens, 10 μM single dose, RPMI-8226 (leukaemia), read-out: growth inhibition percent (GI%)
  inhibition at 10 µM: > 100%
RPMI-8226; five-dose
  TGI: 17.50 µM
A549/ATCC; Homo sapiens, A549, five-dose
  GI50: 8.1 µM
  LC50 (concentration killing 50% of cells): 50.2 µM
A549/ATCC; Homo sapiens, 10 μM single dose, A549/ATCC (non-small cell lung cancer), read-out: growth inhibition percent (GI%)
  inhibition at 10 µM: > 100%
A549/ATCC; five-dose
  TGI: 21.50 µM
EKVX; Homo sapiens, EKVX, five-dose
  GI50: 12 µM
  LC50: 51 µM
EKVX; Homo sapiens, 10 μM single dose, EKVX (non-small cell lung cancer), read-out: growth inhibition percent (GI%)
  inhibition at 10 µM: > 100%
EKVX; five-dose
  TGI: 24.80 µM
HOP-62; Homo sapiens, HOP-62, five-dose
  GI50: 13.2 µM
HOP-62; Homo sapiens, HOP-62, five-dose, read-out: LC50 (the source's name)
  CC50: 59.9 µM
HOP-62; Homo sapiens, 10 μM single dose, HOP-62 (non-small cell lung cancer), read-out: growth inhibition percent (GI%)
  inhibition at 10 µM: > 100%
HOP-62; five-dose
  TGI: 28.10 µM
HOP-92; Homo sapiens, HOP-92, five-dose
  GI50: 4.2 µM
HOP-92; Homo sapiens, HOP-92, five-dose, read-out: LC50 (the source's name)
  CC50: 48.4 µM
HOP-92; Homo sapiens, 10 μM single dose, HOP-92 (non-small cell lung cancer), read-out: growth inhibition percent (GI%)
  inhibition at 10 µM: > 100%
HOP-92; five-dose
  TGI: 18.10 µM
NCI-H226; Homo sapiens, NCI-H226, five-dose
  GI50: 13.8 µM
NCI-H226; Homo sapiens, NCI-H226, five-dose, read-out: LC50 (the source's name)
  CC50: 81.3 µM
NCI-H226; Homo sapiens, 10 μM single dose, NCI-H226 (non-small cell lung cancer), read-out: growth inhibition percent (GI%)
  inhibition at 10 µM: > 100%
NCI-H226; five-dose
  TGI: 33.40 µM
NCI-H23; Homo sapiens, NCI-H23, five-dose
  GI50: 15.1 µM
NCI-H23; Homo sapiens, NCI-H23, five-dose, read-out: LC50 (the source's name)
  CC50: 56.5 µM
NCI-H23; Homo sapiens, 10 μM single dose, NCI-H23 (non-small cell lung cancer), read-out: growth inhibition percent (GI%)
  inhibition at 10 µM: > 100%
NCI-H23; five-dose
  TGI: 29.30 µM
NCI-H460; Homo sapiens, NCI-H460, five-dose
  GI50: 9.2 µM
NCI-H460; Homo sapiens, NCI-H460, five-dose, read-out: LC50 (the source's name)
  CC50: 53.9 µM
NCI-H460; Homo sapiens, 10 μM single dose, NCI-H460 (non-small cell lung cancer), read-out: growth inhibition percent (GI%)
  inhibition at 10 µM: > 100%
NCI-H460; five-dose
  TGI: 22.90 µM
NCI-H522; Homo sapiens, NCI-H522, five-dose
  GI50: 11.3 µM
NCI-H522; Homo sapiens, NCI-H522, five-dose, read-out: LC50 (the source's name)
  CC50: 55.8 µM
NCI-H522; Homo sapiens, 10 μM single dose, NCI-H522 (non-small cell lung cancer), read-out: growth inhibition percent (GI%)
  inhibition at 10 µM: > 100%
NCI-H522; five-dose
  TGI: 25.10 µM
HCC-2998; Homo sapiens, HCC 2998, five-dose
  GI50: 1.76 µM
HCC-2998; Homo sapiens, HCC 2998, five-dose, read-out: LC50 (the source's name)
  CC50: 5.89 µM
HCC-2998; Homo sapiens, 10 μM single dose, HCC-2998 (colon cancer), read-out: growth inhibition percent (GI%)
  inhibition at 10 µM: > 100%
HCC-2998; five-dose
  TGI: 3.22 µM
HCT-116; Homo sapiens, HCT-116, five-dose
  GI50: 3.51 µM
HCT-116; Homo sapiens, HCT-116, five-dose, read-out: LC50 (the source's name)
  CC50: 38.1 µM
HCT-116; Homo sapiens, 10 μM single dose, HCT-116 (colon cancer), read-out: growth inhibition percent (GI%)
  inhibition at 10 µM: > 100%
HCT-116; five-dose
  TGI: 11.60 µM
HCT-15; Homo sapiens, HCT-15, five-dose
  GI50: 5.05 µM
HCT-15; Homo sapiens, HCT-15, five-dose, read-out: LC50 (the source's name)
  CC50: 43.8 µM
HCT-15; Homo sapiens, 10 μM single dose, HCT-15 (colon cancer), read-out: growth inhibition percent (GI%)
  inhibition at 10 µM: > 100%
HCT-15; five-dose
  TGI: 17.50 µM
HT29; Homo sapiens, HT-29, 10 μM single dose, HT29 (colon cancer), read-out: growth inhibition percent (GI%)
  inhibition at 10 µM: > 100%
HT29; Homo sapiens, HT-29, five-dose
  GI50: 3.3 µM
HT29; Homo sapiens, HT-29, five-dose, read-out: LC50 (the source's name)
  CC50: 36.6 µM
HT29; five-dose
  TGI: 10.50 µM
KM12; Homo sapiens, KM12, five-dose
  GI50: 17.1 µM
KM12; Homo sapiens, KM12, five-dose, read-out: LC50 (the source's name)
  CC50: 63.1 µM
KM12; Homo sapiens, 10 μM single dose, KM12 (colon cancer), read-out: growth inhibition percent (GI%)
  inhibition at 10 µM: > 100%
KM12; five-dose
  TGI: 32.80 µM
SW-620; Homo sapiens, SW-620, five-dose
  GI50: 3.38 µM
SW-620; Homo sapiens, SW-620, five-dose, read-out: LC50 (the source's name)
  CC50: 40.9 µM
SW-620; Homo sapiens, 10 μM single dose, SW-620 (colon cancer), read-out: growth inhibition percent (GI%)
  inhibition at 10 µM: > 100%
SW-620; five-dose
  TGI: 13.10 µM
SF-295
  GI50: 15.8 µM
